Like-named read-outs stand apart in the source and are kept apart here.
Key:
HT29 human cells = experiment: In vivo tumour volume, HT29 cells subcutaneously introduced into mice, 5-fluorouracil and deltonin; parameters: species or system Balb/c nude female mice; settings: 5-Fluorouracil 37.5 mg/kg 1 × weekly
Description: 5-Fluorouracil (5FU) is the principal chemotherapeutic drug used in treating colon cancer; it is most commonly co-administered with other chemotherapeutic agents. This study compared the co-administration of 5-fluoruracil and deltonin, with administration of mono-administration of both 5-fluorourcil and deltonin.
72 female Balb/c nude female mice were microchipped, weighed and randomised based on body weight into 8 groups with 9 mice per group. […]
HT29 human […] carcinoma cells were cultured in RPMI1640 cell culture medium, which was supplemented with 10% FBS and penicillin-streptomycin (50 IU/mL final concentration). The cells were harvested by trypsinisation, washed twice in HBSS and counted. The cells were then resuspended in HBSS and adjusted to a final volume containing 2×10^7 cells/mL. For inoculation, the needle was introduced through the skin into the subcutaneous space just below the right shoulder, where 100 μL of cells (2×10^6) were discharged.
When the tumour volumes had reached an average of greater than 200 mm^3, treatment was started (Day 0). Tumour volumes were measured 3-times weekly, and determined according to the formula: V(mm^3)=length×diameter^2×π/6
Treatment was continued for 17 days. The mean tumour volumes for each dosage regime are given in Table 24 and are presented graphically in FIG. 1: […]

PC3 cell line = experiment: Cancer cell growth inhibition, SRB dye assay (single agents and 50:50 IC50 mixtures); format: cell-based, human; settings: single agent, Example 2
Method: (§1) Cancer cells were seeded the day before application of drug in triplicate or quadruplicate in 96-well plates, allowed to grow in the presence of drug for 6 days before cell growth relative to untreated control wells was determined with a dye assay.
(§2) Cells were seeded in triplicate or quadruplicate at 3-4,000 per microtitre well in 90 μl of RPMI culture medium/10% foetal calf serum/penicillin, streptomycin mix, treated with 10 μl of drug (prepared in a dilution plate at 10× concentration required), and allowed to grow until the controls were nearly confluent (6 days).
(§3) SRB: Plates were washed with PBS, fixed with methylated spirits, washed with tap water and stained with 50 μL/well of SRB solution (sulforhodamine, 0.4% in 1% acetic acid), followed by washing with tap water and 1% acetic acid, solubilisation in Tris and absorbance read at 564 nm in an ELISA reader.
(§4) Data was collected using ELISA plate reader software—SOFTmax PRO3.1.2, then imported into EXCEL. The mean and SD of replicates were calculated as a % of control, after subtraction of the blank value (wells with no cells). A graph was plotted of % control vs dose of agent and IC50 (half maximal inhibitory concentration) values determined.
(§5) Tumour cells were seeded in duplicate in 96-well plates at 2-5,000 per microtitre well containing RPMI culture medium/10% foetal calf serum. The cells were allowed to grow until the controls were nearly confluent after 5-6 days. Plates were then washed with PBS, fixed in ethanol and stained with 50 μL/well of SRB solution (sulforhodamine, 0.4% in 1% acetic acid), followed by washing with 1% acetic acid and solubilisation in Tris. The absorbance was read at 564 nm using an ELISA reader.
(§6) The IC50, or concentration required to inhibit cell growth by 50%, was determined from the percentage inhibition versus concentration data using the probit calculation methods of Finney (Finney D J (1971). Probit Analysis. 3rd Edition. Cambridge University Press).
(§7) The inhibitory data from each mixture was used to determine an IC50 of IC50 value, where the concentrations used were the Multiplying Factor values. In order to determine the actual IC50 contribution of each component in the two-component mixture, the IC50 of IC50 value was multiplied by the IC50 of the individual component. This can then be used to determine the reduction in IC50 contribution (ie, reduction in dose) of the chemotherapeutic agent due to the presence of the steroid saponin in the mixture. A simpler way of determining the reduction in dose is to use the following simple formula: […]

HT29 cell line = experiment: as above; format: cell-based, human; settings: single agent, Example 2
Method: as §1, §2, §3, §4, §5, §6, §7

A549 cell line = experiment: as above; format: cell-based, human
Method: as §1, §2, §3, §4, §5, §6, §7

DU145 cell line = experiment: as above; format: cell-based, human; settings: single agent, Example 2
Method: as §1, §2, §3, §4, §5, §6, §7

LNCap cell line = experiment: as above; format: cell-based, human; settings: for Vincristine Dose Reduction: 50:50 IC50 mixture vs vincristine alone, Example 3
Method: (§8) Cancer cells were seeded the day before application of drug in triplicate or quadruplicate in 96-well plates, allowed to grow in the presence of drug for 6 days before cell growth relative to untreated control wells was determined with a dye assay. Cells were seeded in triplicate or quadruplicate at 3-4,000 per microtitre well in 90 μl of RPMI culture medium/10% foetal calf serum/penicillin, streptomycin mix, treated with 10 μl of drug (prepared in a dilution plate at 10× concentration required), and allowed to grow until the controls were nearly confluent (6 days). SRB: Plates were washed with PBS, fixed with methylated spirits, washed with tap water and stained with 50 μL/well of SRB solution (sulforhodamine, 0.4% in 1% acetic acid), followed by washing with tap water and 1% acetic acid, solubilisation in Tris and absorbance read at 564 nm in an ELISA reader. Data was collected using ELISA plate reader software—SOFTmax PRO3.1.2, then imported into EXCEL. The mean and SD of replicates were calculated as a % of control, after subtraction of the blank value (wells with no cells). A graph was plotted of % control vs dose of agent and IC50 (half maximal inhibitory concentration) values determined. […] The cells were allowed to grow until the controls were nearly confluent after 5-6 days. Plates were then washed with PBS, fixed in ethanol and stained with 50 μL/well of SRB solution (sulforhodamine, 0.4% in 1% acetic acid), followed by washing with 1% acetic acid and solubilisation in Tris. The absorbance was read at 564 nm using an ELISA reader. […] Cambridge University Press). […] The inhibitory data from each mixture was used to determine an IC50 of IC50 value, where the concentrations used were the Multiplying Factor values. In order to determine the actual IC50 contribution of each component in the two-component mixture, the IC50 of IC50 value was multiplied by the IC50 of the individual component. This can then be used to determine the reduction in IC50 contribution (ie, reduction in dose) of the chemotherapeutic agent due to the presence of the steroid saponin in the mixture. A simpler way of determining the reduction in dose is to use the following simple formula: […]

MCF7 cell line = experiment: as above; format: cell-based, human; settings: for Vincristine Dose Reduction: 50:50 IC50 mixture vs vincristine alone, Example 3
Method: as §8

[1] = system: PC3, DU145, A549 and HT29 cell lines; experiment: Cancer cell growth inhibition, IC50 values used in assay for four cell lines (Example 5); format: cell-based, human; settings: value used to make up 50:50 IC50 mixtures
Method: as §5, §6
The cell seeding and ELISA plate methodology of Example 2 were used for determining inhibition of four cancer cell lines. IC50 values were determined for the steroid saponins dioscin, deltonin and prosapogenin A, and their mixtures with cisplatin, docetaxel, doxorubicin and vincristine, using PC3, DU145, A549 and HT29 cell lines.

K562 cell line = experiment: Cancer cell growth inhibition, SRB dye assay (single agents and 50:50 IC50 mixtures); format: cell-based, human
Method: as §1, §2, §3, §4, §5, §6, §7
The cell seeding and ELISA plate methodology of Example 2 were used for determining inhibition of the K562 cell line.

[2] = single agent, Example 2, read-out: IC50
[3] = Example 3, value used to make up 50:50 IC50 mixtures, read-out: IC50 values used in assay
[4] = Homo sapiens, 144 h, Example 4, value used to make up 50:50 IC50 mixtures, read-out: IC50 values used in assay
[5] = Homo sapiens, 144 h, Example 3, value used to make up 50:50 IC50 mixtures, read-out: IC50 values used in assay
[6] = Homo sapiens, 144 h, single agent, Example 2, read-out: IC50
[7] = Example 4, value used to make up 50:50 IC50 mixtures, read-out: IC50 values used in assay

Compound: O=c1[nH]cc(F)c(=O)[nH]1 [5-Fluorouracil (5FU), 5-Fluorouracil]
- Mean tumour volume (HT29 human cells; Day 0): 236 mm^3
- Mean tumour volume (HT29 human cells; Day 2): 280 mm^3
- Mean tumour volume (HT29 human cells; Day 4): 307 mm^3
- Mean tumour volume (HT29 human cells; Day 7): 330 mm^3
- Mean tumour volume (HT29 human cells; Day 9): 432 mm^3
- Mean tumour volume (HT29 human cells; Day 11): 511 mm^3
- Mean tumour volume (HT29 human cells; Day 14): 681 mm^3
- Mean tumour volume (HT29 human cells; Day 16): 676 mm^3
- Mean tumour volume (HT29 human cells; Day 18): 824 mm^3

Compound: N.N.[Cl][Pt][Cl] [Cisplatin]
- IC50 (PC3 cell line): 1400 nM
- IC50 (HT29 cell line): 930 nM
- IC50 (A549 cell line; [2]): 1200 nM
- IC50 (DU145 cell line): 540 nM
- IC50 (LNCap cell line; [3]): 800 nM
- IC50 (LNCap cell line; [2]): 700 nM
- IC50 (MCF7 cell line; [3]): 800 nM
- IC50 (MCF7 cell line; [2]): 650 nM
- IC50 [1]: 800 nM
- IC50 (K562 cell line; [2]): 820 nM

Compound: C[C@@H]1CC[C@@]2(OC1)O[C@H]1C[C@H]3[C@@H]4CC=C5C[C@@H](O[C@@H]6O[C@H](CO)[C@@H](O[C@@H]7O[C@@H](C)[C@H](O)[C@@H](O)[C@H]7O)[C@H](O)[C@H]6O[C@@H]6O[C@@H](C)[C@H](O)[C@@H](O)[C@H]6O)CC[C@]5(C)[C@H]4CC[C@]3(C)[C@H]1[C@@H]2C [Dioscin, diosgenin Rha2, [Rha4], Glc]
- IC50 (A549 cell line; [4]): 1000 nM
- Vincristine Dose Reduction (LNCap cell line): consistent reduction in dosage
- IC50 (LNCap cell line; [5]): 1000 nM
- Vincristine Dose Reduction (MCF7 cell line): consistent reduction in dosage
- IC50 (MCF7 cell line; [5]): 1000 nM
- IC50 ([1]; Homo sapiens): 1000 nM
- IC50 (K562 cell line; Homo sapiens, 144 h, Example 6, value used to make up 50:50 IC50 mixtures, read-out: IC50 values used in assay): 1000 nM

Compound: CC(=O)O[C@@]12CO[C@@H]1C[C@H](O)[C@@]1(C)C(=O)[C@H](O)C3=C(C)[C@@H](OC(=O)[C@H](O)[C@@H](NC(=O)OC(C)(C)C)c4ccccc4)C[C@@](O)([C@@H](OC(=O)c4ccccc4)[C@H]21)C3(C)C [Docetaxel]
- IC50 (PC3 cell line; Homo sapiens, PC-3, 144 h): 0.09 nM
- IC50 (HT29 cell line; Homo sapiens, HT-29, 144 h): 0.51 nM
- IC50 (A549 cell line; [6]): 0.27 nM
- IC50 (DU145 cell line; Homo sapiens, DU-145, 144 h): 0.15 nM
- IC50 (LNCap cell line; [5]): 0.03 nM
- IC50 (LNCap cell line; [6]): 0.026 nM
- IC50 (MCF7 cell line; [5]): 0.03 nM
- IC50 (MCF7 cell line; [6]): 0.039 nM
- IC50 ([1]; Homo sapiens): 0.2 nM
- IC50 (K562 cell line; [6]): 0.42 nM

Compound: COc1cccc2c1C(=O)c1c(O)c3c(c(O)c1C2=O)C[C@@](O)(C(=O)CO)C[C@@H]3O[C@H]1C[C@H](N)[C@H](O)[C@H](C)O1 [Doxorubicin]
- IC50 (PC3 cell line; Homo sapiens, PC-3, 144 h): 22 nM
- IC50 (HT29 cell line; Homo sapiens, HT-29, 144 h): 28 nM
- IC50 (A549 cell line; [6]): 16 nM
- IC50 (DU145 cell line; Homo sapiens, DU-145, 144 h): 11 nM
- IC50 (LNCap cell line; [5]): 4 nM
- IC50 (LNCap cell line; [6]): 3.9 nM
- IC50 (MCF7 cell line; [5]): 15 nM
- IC50 (MCF7 cell line; [6]): 14 nM
- IC50 ([1]; Homo sapiens): 15 nM
- IC50 (K562 cell line; [6]): 8.5 nM

Compound: CC(=O)O[C@H]1C(=O)[C@@]2(C)[C@H]([C@H](OC(=O)c3ccccc3)[C@]3(O)C[C@H](OC(=O)[C@H](O)[C@@H](NC(=O)c4ccccc4)c4ccccc4)C(C)=C1C3(C)C)[C@]1(OC(C)=O)CO[C@@H]1C[C@@H]2O [Paclitaxel]
- IC50 (PC3 cell line; Homo sapiens, PC-3, 144 h): 2.1 nM
- IC50 (HT29 cell line; Homo sapiens, HT-29, 144 h): > 3.3 nM
- IC50 (A549 cell line; [4]): 3 nM
- IC50 (A549 cell line; [6]): 3.2 nM
- IC50 (DU145 cell line; Homo sapiens, DU-145, 144 h): 2.7 nM
- IC50 (LNCap cell line; [6]): 1.2 nM
- IC50 (MCF7 cell line; [4]): 1 nM
- IC50 (MCF7 cell line; [6]): 1.1 nM
- IC50 (K562 cell line; [6]): > 3.3 nM

Compound: C[C@@H]1CC[C@@]2(OC1)O[C@H]1C[C@H]3[C@@H]4CC=C5C[C@@H](O[C@@H]6O[C@H](CO)[C@@H](O)[C@H](O)[C@H]6O[C@@H]6O[C@@H](C)[C@H](O)[C@@H](O)[C@H]6O)CC[C@]5(C)[C@H]4CC[C@]3(C)[C@H]1[C@@H]2C [Prosapogenin A, diosgenin Rha2, Glc]
- IC50 (A549 cell line; [7]): 2000 nM
- Vincristine Dose Reduction (LNCap cell line): effectively zero reduction
- IC50 (LNCap cell line; [3]): 2000 nM
- Vincristine Dose Reduction (MCF7 cell line): effectively zero reduction
- IC50 (MCF7 cell line; [3]): 2000 nM
- IC50 (MCF7 cell line; [7]): 2000 nM
- IC50 [1]: 2000 nM
- IC50 (K562 cell line; Example 6, value used to make up 50:50 IC50 mixtures, read-out: IC50 values used in assay): 2000 nM
